# Measured values published in patent US12338255B2, “Bicyclic substituted sulfonylurea compounds as inhibitors of interleukin-1 activity” (Viva Star Biosciences (Suzhou) Co., Ltd., priority 2022, dated 2025).
# Target: T1, NLRP3 (Homo sapiens, UniProt Q96P20)
# T1 construct: Seed THP-1 cells (5.56*10^5 cells/mL) containing 1.0 ug/mL LPS; endogenous in cells; host or cells: THP-1 cells
# Assay: THP-1 LPS/nigericin IL1β release (pyroptosis assay), HTRF
# Assay type: cell-based
# Conditions: NLRP3 inhibitory activity; THP-1 cells, 1.0 ug/mL LPS, compound 3 hrs, nigericin 5 uM 1 hr, IL1β in supernatant
# Protocol: The following method was used for compound screening. • 1. Seed THP-1 cells (5.56*10^5 cells/mL) containing 1.0 ug/mL LPS (SIGMA, L6529) in 45 uL RPMI 1640 medium (without FBS) into 384-well plate (Thermo Scientific, 164688). • 2. Add 5 uL compound (10 doses starting from 5 uM, 1:3 dilution) or vehicle (0.05% DMSO in medium) to the appropriate wells. • 3. Centrifuge the plates at 1000 rpm for 2 mins and incubate for 3 hrs at 37° C., 5% CO2. • 4. Add 5 uL nigericin (MEC, HY-100381) (final conc. 5 uM) to sample wells and positive control wells; add 5 uL RPMI 1640 medium to negative control wells. • 5. Centrifuge plates at 1000 rpm for 2 mins and incubate for 1 hr at 37° C., 5% CO2. • 6. At the end of the incubation period, centrifuge plates at 1000 rpm for 6 mins and transfer 8 uL supernatant into 384-well assay plates (PerkinElmer, 6008280). • 7. Add 8 ul RPMI 1640 medium into each well and spin down for 10 secs. • 8. Prepare the standard solutions and pre-mixed IL1β antibodie solution of Human IL1β kits (PerkinElmer, 62HIL1BPEH) according to the instruction. • 9. Add 16 uL standard solutions into clear wells of 384-well assay plates. • 10. Add 4 uL pre-mixed IL1β antibodie solution to all wells including sample wells, positive control wells, negative control wells and standard solutions wells. • 11. Seal the plates, spin down for 10 secs, incubation for overnight at RT and read on an HTRF® compatible reader (BMG LABTECH, PHERAstar FS). • 12. The concentrations of IL1β for treated wells are calculated by the standard curve. • 13. The IC50 data is fitted to a non-liner regression equation (log inhibitor vs. response—Variable slope four parameters)).
# T1 sequence (Q96P20 whole entry): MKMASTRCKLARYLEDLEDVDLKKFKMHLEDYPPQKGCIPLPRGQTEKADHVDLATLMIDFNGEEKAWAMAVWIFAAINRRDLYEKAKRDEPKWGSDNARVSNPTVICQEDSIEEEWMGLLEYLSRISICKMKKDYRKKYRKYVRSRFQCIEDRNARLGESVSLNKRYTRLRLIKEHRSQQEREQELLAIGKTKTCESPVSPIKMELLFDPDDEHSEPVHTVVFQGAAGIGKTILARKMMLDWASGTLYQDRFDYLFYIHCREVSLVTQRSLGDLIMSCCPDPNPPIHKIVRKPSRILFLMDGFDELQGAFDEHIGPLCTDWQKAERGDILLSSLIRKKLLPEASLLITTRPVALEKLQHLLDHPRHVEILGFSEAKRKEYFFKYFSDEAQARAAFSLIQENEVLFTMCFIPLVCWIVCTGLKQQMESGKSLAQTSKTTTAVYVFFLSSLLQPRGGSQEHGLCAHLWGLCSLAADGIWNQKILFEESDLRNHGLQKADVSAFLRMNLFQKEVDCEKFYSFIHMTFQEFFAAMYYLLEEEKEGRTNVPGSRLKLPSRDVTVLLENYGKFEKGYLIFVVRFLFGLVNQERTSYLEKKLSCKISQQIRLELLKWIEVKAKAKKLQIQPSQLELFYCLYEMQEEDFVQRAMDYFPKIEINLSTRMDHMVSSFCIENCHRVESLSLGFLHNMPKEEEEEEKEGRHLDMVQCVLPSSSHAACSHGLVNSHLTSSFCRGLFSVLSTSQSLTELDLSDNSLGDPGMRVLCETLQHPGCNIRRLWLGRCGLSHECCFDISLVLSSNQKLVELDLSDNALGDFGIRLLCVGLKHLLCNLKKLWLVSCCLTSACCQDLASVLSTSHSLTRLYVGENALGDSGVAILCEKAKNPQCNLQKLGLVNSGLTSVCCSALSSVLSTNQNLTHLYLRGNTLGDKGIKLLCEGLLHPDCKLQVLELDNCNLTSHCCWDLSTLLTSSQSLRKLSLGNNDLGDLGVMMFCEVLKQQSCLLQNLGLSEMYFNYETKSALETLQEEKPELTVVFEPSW
row,SMILES,IC50 [nM]
1,"O=C(Nc1c(-c2ccc3ccnn3c2)ccc2c1CCC2)NS(=O)(=O)c1cc2n(n1)CCO[C@@H]2C1CC1 (single isomer, unassigned) [Example 2]",100 to 500
2,"O=C(Nc1c(-c2ccc3ncnn3c2)ccc2c1CCC2)NS(=O)(=O)c1cc2n(n1)CCO[C@@H]2C1CC1 (single isomer, unassigned) [Example 4]",100 to 500
3,"O=C(Nc1c(-c2ccn3nccc3c2)ccc2c1CCC2)NS(=O)(=O)c1cc2n(n1)CCO[C@H]2C1CC1 (single isomer, unassigned) [Example 5]",≤ 100
4,"Cc1cc2c(c(NC(=O)NS(=O)(=O)c3cc4n(n3)CCO[C@@H]4C3CC3)c1-c1ccn3nccc3c1)CCC2 (single isomer, unassigned) [Example 9]",≤ 100
5,"O=C(Nc1c(-c2ccn3cncc3c2)ccc2c1CCC2)NS(=O)(=O)c1cc2n(n1)CCO[C@@H]2C1CC1 (single isomer, unassigned) [Example 10]",100 to 500
6,"O=C(Nc1c(-c2ccn3ccnc3c2)ccc2c1CCC2)NS(=O)(=O)c1cc2n(n1)CCO[C@@H]2C1CC1 (single isomer, unassigned) [Example 11]",100 to 500
7,"O=C(Nc1c(-c2ccn3ncnc3c2)ccc2c1CCC2)NS(=O)(=O)c1cc2n(n1)CCO[C@@H]2C1CC1 (single isomer, unassigned) [Example 13]",100 to 500
8,"O=C(Nc1c(-c2ccc3nncn3c2)ccc2c1CCC2)NS(=O)(=O)c1cc2n(n1)CCO[C@@H]2C1CC1 (single isomer, unassigned) [Example 14]",500 to 1000
9,"O=C(Nc1c(-c2ccn3nccc3c2)ccc2c1CCC2)NS(=O)(=O)c1cc2n(n1)C(C1CC1)COC2 (stereo not drawn) [Example 16, 7-cyclopropyl-N-((5-(pyrazolo[1,5-a]pyridin-5-yl)-2,3-dihydro-1H-inden-4-yl)carbamoyl)-6,7-dihydro-4H-pyrazolo[5,1-c][1,4]oxazine-2-sulfonamide]",100 to 500
10,"Cc1cc2c(c(NC(=O)NS(=O)(=O)c3cc4n(n3)CCOC43CCC3)c1-c1ccn3nccc3c1)CCC2 [Example 17, N-((6-methyl-5-(pyrazolo[1,5-a]pyridin-5-yl)-2,3-dihydro-1H-inden-4-yl)carbamoyl)-6′,7′-dihydrospiro[cyclobutane-1,4′-pyrazolo[5,1-c][1,4]oxazine]-2′-sulfonamide]",≤ 100
11,"Cc1cc2c(c(NC(=O)NS(=O)(=O)c3cn4c(n3)C(C3CC3)OCC4)c1-c1ccn3nccc3c1)CCC2 (stereo not drawn) [Example 18, 8-cyclopropyl-N-((6-methyl-5-(pyrazolo[1,5-a]pyridin-5-yl)-2,3-dihydro-1H-inden-4-yl)carbamoyl)-5,6-dihydro-8H-imidazo[2,1-c][1,4]oxazine-2-sulfonamide]",≤ 100
12,"Cc1cc2c(c(NC(=O)NS(=O)(=O)c3cc4n(n3)CCOC4(C)C)c1-c1ccnc3[nH]ccc13)CCC2 [Example 20, 4,4-dimethyl-N-((6-methyl-5-(1H-pyrrolo[2,3-b]pyridin-4-yl)-2,3-dihydro-1H-inden-4-yl)carbamoyl)-6,7-dihydro-4H-pyrazolo[5,1-c][1,4]oxazine-2-sulfonamide]",100 to 500
13,"Cc1cc2c(c(NC(=O)NS(=O)(=O)c3cnn4c3COCC4)c1-c1ccnc3[nH]ccc13)CCC2 [Example 21, N-((6-methyl-5-(1H-pyrrolo[2,3-b]pyridin-4-yl)-2,3-dihydro-1H-inden-4-yl)carbamoyl)-6,7-dihydro-4H-pyrazolo[5,1-c][1,4]oxazine-3-sulfonamide]",100 to 500
14,"O=C(Nc1c(-c2ccn3nccc3c2)ccc2c1CCC2)NS(=O)(=O)c1cnc2c(c1)N(C1CC1)CCO2 [Example 24, 1-cyclopropyl-N-((5-(pyrazolo[1,5-a]pyridin-5-yl)-2,3-dihydro-1H-inden-4-yl)carbamoyl)-2,3-dihydro-1H-pyrido[2,3-b][1,4]oxazine-7-sulfonamide]",≤ 100
15,"Cc1cc2c(c(NC(=O)NS(=O)(=O)c3cnc4c(c3)N(C3CC3)CCO4)c1-c1ccn3nccc3c1)CCC2 [Example 25, 1-cyclopropyl-N-((6-methyl-5-(pyrazolo[1,5-a]pyridin-5-yl)-2,3-dihydro-1H-inden-4-yl)carbamoyl)-2,3-dihydro-1H-pyrido[2,3-b][1,4]oxazine-7-sulfonamide]",≤ 100
16,"Cc1cc2c(c(NC(=O)NS(=O)(=O)c3cnn4c3COCC4)c1-c1ccn3nccc3c1)CCC2 [Example 26, N-((6-methyl-5-(pyrazolo[1,5-a]pyridin-5-yl)-2,3-dihydro-1H-inden-4-yl)carbamoyl)-6,7-dihydro-4H-pyrazolo[5,1-c][1,4]oxazine-3-sulfonamide]",100 to 500
17,"CO[C@@H]1COc2c(S(=O)(=O)NC(=O)Nc3c4c(cc(C)c3-c3ccn5ccnc5c3)CCC4)cnn2C1 [Example 28, (S)-N-((5-(imidazo[1,2-a]pyridin-7-yl)-6-methyl-2,3-dihydro-1H-inden-4-yl)carbamoyl)-6-methoxy-6,7-dihydro-5H-pyrazolo[5,1-b][1,3]oxazine-3-sulfonamide]",≤ 100
18,"CO[C@@H]1COc2c(S(=O)(=O)NC(=O)Nc3c4c(cc(C)c3-c3ccc5ccnn5c3)CCC4)cnn2C1 [Example 29, (S)-6-methoxy-N-((6-methyl-5-(pyrazolo[1,5-a]pyridin-6-yl)-2,3-dihydro-1H-inden-4-yl)carbamoyl)-6,7-dihydro-5H-pyrazolo[5,1-b][1,3]oxazine-3-sulfonamide]",≤ 100
19,"CO[C@@H]1COc2c(S(=O)(=O)NC(=O)Nc3c4c(cc(C)c3-c3ccc5nccn5c3)CCC4)cnn2C1 [Example 30, (S)-N-((5-(imidazo[1,2-a]pyridin-6-yl)-6-methyl-2,3-dihydro-1H-inden-4-yl)carbamoyl)-6-methoxy-6,7-dihydro-5H-pyrazolo[5,1-b][1,3]oxazine-3-sulfonamide]",≤ 100

# Second part, the compound after the results:
row,IC50 [nM],SMILES
1,≤ 100,"O=C(Nc1c(-c2ccn3nccc3c2)ccc2c1CCC2)NS(=O)(=O)c1cc2n(n1)CCO[C@@H]2C1CC1 (single isomer, unassigned) [Example 1]"
2,≤ 100,"O=C(Nc1c(-c2ccn3nncc3c2)ccc2c1CCC2)NS(=O)(=O)c1cc2n(n1)CCO[C@@H]2C1CC1 (single isomer, unassigned) [Example 3]"
3,100 to 500,"O=C(Nc1c(-c2ccc3ccnn3c2)ccc2c1CCC2)NS(=O)(=O)c1cc2n(n1)CCO[C@H]2C1CC1 (single isomer, unassigned) [Example 6]"
4,100 to 500,"O=C(Nc1c(-c2ccn3nncc3c2)ccc2c1CCC2)NS(=O)(=O)c1cc2n(n1)CCO[C@H]2C1CC1 (single isomer, unassigned) [Example 7]"
5,100 to 500,"O=C(Nc1c(-c2ccc3ncnn3c2)ccc2c1CCC2)NS(=O)(=O)c1cc2n(n1)CCO[C@H]2C1CC1 (single isomer, unassigned) [Example 8]"
6,100 to 500,"O=C(Nc1c(-c2ccc3cncn3c2)ccc2c1CCC2)NS(=O)(=O)c1cc2n(n1)CCO[C@@H]2C1CC1 (single isomer, unassigned) [Example 12]"
7,≤ 100,"Cc1cc2c(c(NC(=O)NS(=O)(=O)c3cc4n(n3)CCO[C@@H]4C3CC3)c1-c1ccn3ccnc3c1)CCC2 (single isomer, unassigned) [Example 15]"
8,500 to 1000,"Cc1cc2c(c(NC(=O)NS(=O)(=O)c3cn4c(n3)C(C3CC3)OCC4)c1-c1ccnc3[nH]ccc13)CCC2 (stereo not drawn) [Example 19, 8-cyclopropyl-N-((6-methyl-5-(1H-pyrrolo[2,3-b]pyridin-4-yl)-2,3-dihydro-1H-inden-4-yl)carbamoyl)-5,6-dihydro-8H-imidazo[2,1-c][1,4]oxazine-2-sulfonamide]"
9,≤ 100,"Cc1cc2c(c(NC(=O)NS(=O)(=O)c3cc4n(n3)CCOC4(C)C)c1-c1ccn3nccc3c1)CCC2 [Example 22, 4,4-dimethyl-N-((6-methyl-5-(pyrazolo[1,5-a]pyridin-5-yl)-2,3-dihydro-1H-inden-4-yl)carbamoyl)-6,7-dihydro-4H-pyrazolo[5,1-c][1,4]oxazine-2-sulfonamide]"
10,≤ 100,"Cc1cc2c(c(NC(=O)NS(=O)(=O)c3cc4n(n3)CCOC4)c1-c1ccn3nccc3c1)CCC2 [Example 23, N-((6-methyl-5-(pyrazolo[1,5-a]pyridin-5-yl)-2,3-dihydro-1H-inden-4-yl)carbamoyl)-6,7-dihydro-4H-pyrazolo[5,1-c][1,4]oxazine-2-sulfonamide]"
11,≤ 100,"CO[C@@H]1COc2c(S(=O)(=O)NC(=O)Nc3c4c(cc(C)c3-c3ccn5nccc5c3)CCC4)cnn2C1 [Example 27, (S)-6-methoxy-N-((6-methyl-5-(pyrazolo[1,5-a]pyridin-5-yl)-2,3-dihydro-1H-inden-4-yl)carbamoyl)-6,7-dihydro-5H-pyrazolo[5,1-b][1,3]oxazine-3-sulfonamide]"
